{
  "source": "patent EP1003508B1",
  "about": "“ANTIMUTAGENIC AGENTS” (The GRASSETTI Family Trust, priority 1997, dated 1999)",
  "key": {"[1]": {"system": "Salmonella Typhimurium bacteria T-100", "experiment": "microbe, parasite or virus in culture", "assay_type": "cell-based", "details": "for Number of Colonies Per Plate With Inhibitor: inhibitor 0.3 mg/plate added one hour before carcinogen, average of 3; for inhibition at 0.3 mg/plate: Salmonella enterica, TYPHIMURIUM"}, "metastases": {"system": "metastases", "details": "mice; Grassetti 1970, Nature 228:282; cited from earlier work"}, "[2]": {"experiment": "Observed toxicity / tolerability", "details": "can be taken in doses of at least approximately 0.1 gram per day for indefinite periods", "from_the_text": "It can be taken in doses of at least approximately 0.1 gram per day for indefinite periods. This fills the requirements for a non-toxic, low-cost chemopreventive agent, which could be administered orally."}, "[3]": {"molecular_target": "T1, poly(ADP-ribose) polymerase (ADPRP) (Sus scrofa, UniProt I3LDH3)", "T1 construct": "ADPRP was prepared from pig thymus using the method of Khan and Shall; from tissue; host or cells: pig thymus", "T1 sequence (I3LDH3 1-1017)": "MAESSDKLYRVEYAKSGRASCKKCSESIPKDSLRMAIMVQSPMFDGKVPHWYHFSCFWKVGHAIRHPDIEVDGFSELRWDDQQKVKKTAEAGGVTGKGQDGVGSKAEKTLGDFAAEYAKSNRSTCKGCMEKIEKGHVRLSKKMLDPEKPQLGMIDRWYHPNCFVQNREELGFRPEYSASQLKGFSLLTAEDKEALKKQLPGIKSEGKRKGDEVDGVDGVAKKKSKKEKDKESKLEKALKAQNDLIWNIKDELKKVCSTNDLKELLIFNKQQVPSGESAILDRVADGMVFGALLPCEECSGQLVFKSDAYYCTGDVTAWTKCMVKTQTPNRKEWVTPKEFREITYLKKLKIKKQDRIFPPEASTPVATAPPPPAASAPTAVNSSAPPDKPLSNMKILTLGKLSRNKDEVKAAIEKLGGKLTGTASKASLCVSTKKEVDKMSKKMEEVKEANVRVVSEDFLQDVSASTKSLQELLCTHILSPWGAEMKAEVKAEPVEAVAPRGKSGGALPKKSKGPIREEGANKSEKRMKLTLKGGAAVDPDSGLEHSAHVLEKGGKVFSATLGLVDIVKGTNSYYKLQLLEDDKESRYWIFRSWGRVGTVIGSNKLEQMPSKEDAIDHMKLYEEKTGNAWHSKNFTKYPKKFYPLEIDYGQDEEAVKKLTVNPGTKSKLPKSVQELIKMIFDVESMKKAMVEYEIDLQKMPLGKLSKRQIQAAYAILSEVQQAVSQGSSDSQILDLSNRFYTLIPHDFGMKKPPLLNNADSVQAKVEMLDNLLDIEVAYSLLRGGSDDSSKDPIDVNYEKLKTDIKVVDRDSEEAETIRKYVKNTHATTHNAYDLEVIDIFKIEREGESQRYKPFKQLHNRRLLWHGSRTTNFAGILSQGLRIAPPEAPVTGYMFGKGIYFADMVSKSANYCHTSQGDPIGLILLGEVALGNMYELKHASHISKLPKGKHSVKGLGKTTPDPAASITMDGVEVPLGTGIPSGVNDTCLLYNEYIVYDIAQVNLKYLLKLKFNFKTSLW", "experiment": "Inhibition of ADPRP enzyme activity", "assay_type": "biochemical, pig", "procedure": "ADPRP was prepared from pig thymus using the method of Khan and Shall (Biochem. Soc. Transactions 4:778 (1976)) with various modifications. Enzyme activity was approximately linear up to 15-20 minutes with NAD substrate concentration of 25 µM. Typical maximum enzyme activity was around 0.003 nmol product formed/minute in the assay (i.e. approximately 0.1% of substrate utilized). KM was approximately 25 µM.\nUsing a standard assay mix containing 2mM dithiothreitol (DTT) and […] crude enzyme/ml incubation, three experiments were performed with 6,6'-dithiodinicotinic acid added at concentrations varying from 5 µg/ml to 600 µg/ml (i.e. 1/60th molar equivalent of DTT to 2 molar equivalents). […] INHIBITION % OF CONTROLS\nThese are values for individual incubations which were stopped at either 7.5, 15, or 20 minutes."}, "[4]": {"details": "2mM DTT, individual incubation, read-out: Percent Inhibition at: 7.5 min."}, "[5]": {"details": "2mM DTT, individual incubation, read-out: Percent Inhibition at: 15 min."}},
  "note": "Where two headings read alike, the source gives them in different places.",
  "data": [
    {"smiles": "O=C(O)c1ccc(SSc2ccc(C(=O)O)cn2)nc1", "note": "[6,6'-dithiodinicotinic acid]", "values": [
      {"measurement": "Number of Colonies Per Plate With Inhibitor", "setting": "[1]; 2-Aflatoxin 0 (control) µg/plate", "result": 104},
      {"measurement": "Number of Colonies Per Plate With Inhibitor", "setting": "[1]; 2-Aflatoxin 20 µg/plate", "result": 188},
      {"measurement": "Number of Colonies Per Plate With Inhibitor", "setting": "[1]; 2-Aflatoxin 50 µg/plate", "result": 358},
      {"measurement": "Number of Colonies Per Plate With Inhibitor", "setting": "[1]; 2-Aflatoxin 100 µg/plate", "result": 471},
      {"measurement": "Number of Colonies Per Plate With Inhibitor", "setting": "[1]; 2-Aminofluorene 0 (control) µg/plate", "result": 141},
      {"measurement": "Number of Colonies Per Plate With Inhibitor", "setting": "[1]; 2-Aminofluorene 5.0 µg/plate", "result": 705},
      {"measurement": "Number of Colonies Per Plate With Inhibitor", "setting": "[1]; 2-Aminofluorene 15.0 µg/plate", "result": 655},
      {"measurement": "Number of Colonies Per Plate With Inhibitor", "setting": "[1]; 2-Aminofluorene 25.0 µg/plate", "result": 791},
      {"measurement": "Number of Colonies Per Plate With Inhibitor", "setting": "[1]; Benzo-[a]-pyrene 0 (control) µg/plate", "result": 111},
      {"measurement": "Number of Colonies Per Plate With Inhibitor", "setting": "[1]; Benzo-[a]-pyrene 2.5 µg/plate", "result": 339},
      {"measurement": "Number of Colonies Per Plate With Inhibitor", "setting": "[1]; Benzo-[a]-pyrene 5.0 µg/plate", "result": 446},
      {"measurement": "Number of Colonies Per Plate With Inhibitor", "setting": "[1]; Benzo-[a]-pyrene 10.0 µg/plate", "result": 488},
      {"measurement": "inhibition at 0.3 mg/plate", "setting": "[1]; 2-Aminofluorene 5.0 µg/plate, inhibitor 0.3 mg/plate, read-out: Decrease (%)", "result": 10, "unit": "%"},
      {"measurement": "inhibition at 0.3 mg/plate", "setting": "[1]; Benzo-[a]-pyrene 2.5 µg/plate, inhibitor 0.3 mg/plate, read-out: Decrease (%)", "result": 74, "unit": "%"},
      {"measurement": "inhibition at 0.3 mg/plate", "setting": "[1]; Benzo-[a]-pyrene 5.0 µg/plate, inhibitor 0.3 mg/plate, read-out: Decrease (%)", "result": 62, "unit": "%"},
      {"measurement": "inhibition at 0.3 mg/plate", "setting": "[1]; Benzo-[a]-pyrene 10.0 µg/plate, inhibitor 0.3 mg/plate, read-out: Decrease (%)", "result": 58, "unit": "%"},
      {"measurement": "inhibition at 0.3 mg/plate", "setting": "[1]; read-out: Decrease (%), 2-Aflatoxin 0 (control) µg/plate, inhibitor 0.3 mg/plate", "result": 0, "unit": "%"},
      {"measurement": "inhibition at 0.3 mg/plate", "setting": "[1]; read-out: Decrease (%), 2-Aflatoxin 20 µg/plate, inhibitor 0.3 mg/plate", "result": 63, "unit": "%"},
      {"measurement": "inhibition at 0.3 mg/plate", "setting": "[1]; read-out: Decrease (%), 2-Aflatoxin 50 µg/plate, inhibitor 0.3 mg/plate", "result": 68, "unit": "%"},
      {"measurement": "inhibition at 0.3 mg/plate", "setting": "[1]; read-out: Decrease (%), 2-Aflatoxin 100 µg/plate, inhibitor 0.3 mg/plate", "result": 72, "unit": "%"},
      {"measurement": "inhibition at 0.3 mg/plate", "setting": "[1]; read-out: Decrease (%), 2-Aminofluorene 0 (control) µg/plate, inhibitor 0.3 mg/plate", "result": 0, "unit": "%"},
      {"measurement": "inhibition at 0.3 mg/plate", "setting": "[1]; read-out: Decrease (%), 2-Aminofluorene 15.0 µg/plate, inhibitor 0.3 mg/plate", "result": 72, "unit": "%"},
      {"measurement": "inhibition at 0.3 mg/plate", "setting": "[1]; read-out: Decrease (%), 2-Aminofluorene 25.0 µg/plate, inhibitor 0.3 mg/plate", "result": 63, "unit": "%"},
      {"measurement": "inhibition at 0.3 mg/plate", "setting": "[1]; read-out: Decrease (%), Benzo-[a]-pyrene 0 (control) µg/plate, inhibitor 0.3 mg/plate", "result": 0, "unit": "%"},
      {"measurement": "inhibition at 0.3 mg/plate", "setting": "[1]; read-out: number of mutants decreased, present in the culture prior to addition of carcinogen (benzo-[a]-pyrene, 2-aflatoxin, or 2-aminofluorene)", "result": "~70", "unit": "%"},
      {"measurement": "mutagenic effect of carcinogenic chemicals", "setting": "[1]; benzo-[a]-pyrene, 2-aflatoxin, and 2-aminofluorene", "result": "greatly diminished"},
      {"measurement": "prevention of metastases", "setting": "metastases", "result": "known to prevent metastases in mice"},
      {"measurement": "toxicity", "setting": "[2]", "result": "not a toxic compound"},
      {"measurement": "inhibition at 5 µg/mL", "setting": "[3]; [4]", "result": 0, "unit": "%"},
      {"measurement": "inhibition at 5 µg/mL", "setting": "[3]; [5]", "result": 14, "unit": "%"},
      {"measurement": "inhibition at 25 µg/mL", "setting": "[3]; [4]", "result": 0, "unit": "%"},
      {"measurement": "inhibition at 25 µg/mL", "setting": "[3]; [5]", "result": 0, "unit": "%"},
      {"measurement": "inhibition at 50 µg/mL", "setting": "[3]; [4]", "result": 37, "unit": "%"},
      {"measurement": "inhibition at 50 µg/mL", "setting": "[3]; [5]", "result": 38, "unit": "%"},
      {"measurement": "inhibition at 100 µg/mL", "setting": "[3]; [4]", "result": 68, "unit": "%"},
      {"measurement": "inhibition at 100 µg/mL", "setting": "[3]; [5]", "result": 54, "unit": "%"},
      {"measurement": "inhibition at 150 µg/mL", "setting": "[3]; 150 µg/ml, 2mM DTT, individual incubation, read-out: Percent Inhibition at: 7.5 min.", "result": 88, "unit": "%"},
      {"measurement": "inhibition at 150 µg/mL", "setting": "[3]; 150 µg/ml, 2mM DTT, individual incubation, read-out: Percent Inhibition at: 15 min.", "result": 70, "unit": "%"},
      {"measurement": "inhibition at 150 µg/mL", "setting": "[3]; 150 µg/ml, 2mM DTT, individual incubation, read-out: Percent Inhibition at: 20 min.", "result": 90, "unit": "%"},
      {"measurement": "extent of conversion of substrate to bound product after addition of excess DTT", "setting": "[3]; 150 µg/ml, excess DTT added to incubation", "result": "did not increase"},
      {"measurement": "inhibition at 300 µg/mL", "setting": "[3]; 300 µg/ml, 2mM DTT, individual incubation, read-out: Percent Inhibition at: 20 min.", "result": 93, "unit": "%"},
      {"measurement": "inhibition at 600 µg/mL", "setting": "[3]; 600 µg/ml, 2mM DTT, individual incubation, read-out: Percent Inhibition at: 20 min.", "result": 83, "unit": "%"},
      {"measurement": "inhibition of ADPRP", "setting": "[3]; at 50 µg/ml, 2mM DTT", "result": "Significant and specific inhibition"},
      {"measurement": "inhibition of ADPRP", "setting": "[3]; at 150 µg/ml and above (0.5 molar equivalents of DTT and above)", "result": "almost complete inhibition"},
      {"measurement": "inhibition of ADPRP", "setting": "[3]; at 5 and 25 µg/ml", "result": "No inhibition"}
    ]}
  ]
}
